Measured values published in PubChem BioAssay AID1404 (The Scripps Research Institute Molecular Screening Center, 2008).
Calls of active or inactive are those of the source.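 The calls were made as follows: active = EC50 for STAT3 reporter activation at or below 10 µM; inactive = the rest.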

What follows are compounds tested on U3A cells, IL-6 STAT3 luciferase reporter, luminescence (assay: IL-6-driven STAT3 luciferase signal enhancement – U3A cells, STAT1-deficient, luminescence, IL-6 stimulus, counter-screen for STAT1 activator project, dose response (AID 1404)).

SMILES | EC50
Cc1nc(-c2ccc(NC(=O)c3ccccc3C)cc2)cs1 | > 55.7 µM (inactive)
C=CCn1c(C)cc(C(=O)CSc2nc3ccccc3o2)c1C | > 55.7 µM (inactive)
Nc1ccccc1Nc1cc(-c2ccccc2)[nH]n1 | > 55.7 µM (inactive)
c1csc(C2=NNC(=NC3CCCCC3)SC2)c1 | > 55.7 µM (inactive)
CCc1ccc(Nc2ncc3c(n2)CC(C)CC3=O)cc1 (stereo unspecified) | > 55.7 µM (inactive)
NC(=O)Cc1ccc2sc(-c3ccccc3)nc2c1 | > 55.7 µM (inactive)
CC(=O)COc1ccc2c(C)c(-c3ccccc3)c(=O)oc2c1 | > 55.7 µM (inactive)
COc1ccc2[nH]c3c(c2c1)CCn1c-3nc2ccccc2c1=O | > 55.7 µM (inactive)
O=C(Nc1nccs1)c1ccc(-c2ccc([N+](=O)[O-])cc2)o1 | > 55.7 µM (inactive)
CCC(C)NC(=O)c1cc(-c2ccc(OC)cc2)on1 (stereo unspecified) | > 55.7 µM (inactive)
COc1ccc2c(c1)oc(=O)c1cc(OC)ccc12 | > 55.7 µM (inactive)
O=C(CCc1nnc(CCCc2ccccc2)o1)N1CCCCCC1 | > 55.7 µM (inactive)
N#C/C(=C\c1ccc(N2CCOCC2)o1)c1nc2ccccc2[nH]1 | > 55.7 µM (inactive)
Nc1ccccc1C(=O)OCC(=O)N1CCc2ccccc21 | > 55.7 µM (inactive)
COc1cccc(N/C=C/C(=O)c2ccc(Cl)cc2)c1 | > 55.7 µM (inactive)
Cc1cc(C(=O)NCCC2=CCCCC2)c(C)o1 | > 55.7 µM (inactive)
COc1ccc(NC(=S)Nc2ccc3nccnc3c2)cc1 | > 55.7 µM (inactive)
O=C(/C(C=Nc1ccc(F)cc1)=C(/O)c1ccco1)C(F)(F)F | > 55.7 µM (inactive)
COc1ccc2nc(Nc3nc(C)c(C(C)=O)s3)sc2c1 | > 55.7 µM (inactive)
Clc1ccc(-n2ncc3c(NCC4CCCO4)ncnc32)cc1 (stereo unspecified) | > 55.7 µM (inactive)
O=C(Nc1ccc(-c2nc3cccnc3s2)cc1)c1ccco1 | > 55.7 µM (inactive)
c1ccc(CNc2ccc3ccccc3n2)nc1 | > 55.7 µM (inactive)

SMILES | EC50
c1cncc(-c2nc3cc4ccccc4cc3[nH]2)c1 | > 55.7 µM (inactive)
CCOC(=O)c1cnc2c(-c3ccccc3)cnn2c1N | > 55.7 µM (inactive)
CCc1c(C)[nH]c(C(=O)OCc2ccccc2)c1C | > 55.7 µM (inactive)
Cc1ccc(/C=C/C(=O)N2CCCC(C)C2)cc1 (stereo unspecified) | > 55.7 µM (inactive)
Cc1ccc(C(=O)Nc2nc3c(s2)CCCC3)o1 | > 55.7 µM (inactive)
Cc1ccc(-c2cnc(-c3ccncc3)o2)cc1 | > 55.7 µM (inactive)
Cc1ccc(-c2cc(N)n(-c3ccccc3)n2)cc1 | > 55.7 µM (inactive)
Cc1nc2ccc(-c3nc4ccccc4o3)cc2[nH]1 | > 55.7 µM (inactive)
O=C(c1ccccc1)c1ccc(N2CCCC2)cc1 | > 55.7 µM (inactive)
O=C(Cn1cnc2ccccc2c1=O)c1ccc(Cl)cc1 | > 55.7 µM (inactive)
O=C(OCc1csc(-c2ccccc2)n1)c1cccs1 | > 55.7 µM (inactive)
CCOc1ccc2nc(N3CCOCC3)nc(C)c2c1 | > 55.7 µM (inactive)
Nc1ncc(-c2cc3ccccc3oc2=O)s1 | > 55.7 µM (inactive)
O=C(NC(=S)Nc1ccccn1)c1ccc([N+](=O)[O-])cc1 | > 55.7 µM (inactive)
Cc1nc(-c2ccc(NC(=O)c3ccccc3Br)cc2)cs1 | > 55.7 µM (inactive)
O=[N+]([O-])c1ccccc1OCCCn1cnc2ccccc21 | > 55.7 µM (inactive)
O=C(/C=C/Nc1ccccc1F)c1ccc(Br)cc1 | > 55.7 µM (inactive)
CCCOC(=O)c1ccc(-c2ccc(C=O)o2)cc1 | > 55.7 µM (inactive)
CC(=O)Nc1ccccc1C(=O)OCc1cccc(F)c1 | > 55.7 µM (inactive)
COc1ccc(N/C=C\C(=O)c2ccc3c(c2)OCO3)cc1OC | > 55.7 µM (inactive)
CCOC(=O)c1ccc2nc(NC(C)=O)sc2c1 | > 55.7 µM (inactive)
COc1cccc(NC(=O)Nc2ccc(C(C)(C)C)cc2)c1 | > 55.7 µM (inactive)

SMILES | EC50
Fc1ccccc1CSc1nnc(-c2cccnc2)o1 | > 55.7 µM (inactive)
Nc1ccc2nn(-c3ccccc3)nc2c1 | > 55.7 µM (inactive)
O=C(NC(=S)Nc1ccc(F)cc1)c1ccc2c(c1)OCCO2 | > 55.7 µM (inactive)
Cc1cccc(Nc2n[nH]c(C)c2[N+](=O)[O-])c1 | > 55.7 µM (inactive)
O=C(/C=C/c1cccc(F)c1)N1CCc2ccccc21 | > 55.7 µM (inactive)
C=CCNC(=S)NNC(=O)COc1ccc2cc(Br)ccc2c1 | > 55.7 µM (inactive)
Cc1ccc2nc(NC(=O)CCn3cccc3)sc2c1 | > 55.7 µM (inactive)
CC(C)=CC(=O)Nc1nc2ccc([N+](=O)[O-])cc2s1 | > 55.7 µM (inactive)
CCc1ccc(NC(=O)N2CCC(c3ccccc3)C2)cc1 (stereo unspecified) | > 55.7 µM (inactive)
CCCCOC(=O)Nc1nc2ccccc2s1 | > 55.7 µM (inactive)
Cc1ccc(-c2cc3nc(C)cc(NCc4ccco4)n3n2)cc1 | > 55.7 µM (inactive)
CN(C)c1ccc(C(=O)OCC(=O)c2cccs2)cc1 | > 55.7 µM (inactive)
COc1ccc2nc(Nc3ccc4c(c3)OCO4)sc2c1 | > 55.7 µM (inactive)
CCNc1nc(-c2cc3ccccc3o2)cs1 | > 55.7 µM (inactive)
COc1ccc(-c2cc3ncc(-c4ccccc4)c(N)n3n2)cc1 | > 55.7 µM (inactive)
CC(=O)Nc1cccc(-c2cnc3ccccc3n2)c1 | > 55.7 µM (inactive)
COc1cc(NC(=O)c2csc3c2CCCC3)ncn1 | > 55.7 µM (inactive)
O=C(Nc1cccc(Cl)c1)c1ccc2c(=O)n3c(nc2c1)CCCCC3 | > 55.7 µM (inactive)
Cc1occc1C(=O)Nc1ccc2c(c1)CCC2 | > 55.7 µM (inactive)
CC(=O)Nc1ccc(-c2csc(Nc3cccc(C)n3)n2)cc1 | > 55.7 µM (inactive)
CCOC(=O)CSc1nc(-c2ccncc2)ccc1C#N | > 55.7 µM (inactive)
CN1C(=O)/C(=C/C=C2\SCCN2C)SC1=S | > 55.7 µM (inactive)

SMILES | EC50
Cc1ccc(C(=O)Nc2nc3ccccc3s2)s1 | > 55.7 µM (inactive)
COc1ccc(-c2csc(N3C(=O)CNC3=S)n2)cc1 | > 55.7 µM (inactive)
CN(C)c1nc(N)nc(CSc2nc3cc(Cl)ccc3o2)n1 | > 55.7 µM (inactive)
O=C(/C=C/c1ccccc1)Nc1ccc(Cl)cn1 | > 55.7 µM (inactive)
CC(C)Oc1ccc2c(=O)c(-c3ccccc3)coc2c1 | > 55.7 µM (inactive)
COc1ccc(/C=C/C(=O)Nc2ccccc2)cc1OC | > 55.7 µM (inactive)
Cc1nnc(SCC(=O)Nc2ccc(-c3nc4ccccc4s3)cc2)s1 | > 55.7 µM (inactive)
COc1ccc(-c2cc(C)nc3c(-c4ccccc4)cnn23)cc1 | > 55.7 µM (inactive)
CC(=O)c1cccc(N/C=C\C(=O)c2ccc(C)cc2)c1 | > 55.7 µM (inactive)
Cc1ccc(NC(=O)Nc2ccc3oc(C)nc3c2)cc1 | > 55.7 µM (inactive)
CN(C)c1ccnc2sc(C(=O)c3ccccc3)c(N)c12 | > 55.7 µM (inactive)
CCN(CC)c1ccc2cc(C(=O)Nc3ccccn3)c(=O)oc2c1 | > 55.7 µM (inactive)
O=C(Nc1ccc2c(c1)OCCO2)c1ccc(Br)s1 | > 55.7 µM (inactive)
C=CCNc1nc(-c2cc3ccccc3o2)cs1 | > 55.7 µM (inactive)
CCCCCNc1nc(-c2ccccc2)cs1 | > 55.7 µM (inactive)
CC(=O)c1cccc(NC(=S)NC(=O)c2cccc(C)c2)c1 | > 55.7 µM (inactive)
Nc1nc2ccc(-c3nc4ccccc4o3)cc2s1 | > 55.7 µM (inactive)
O=C(/C=C/c1ccco1)Nc1ccccn1 | > 55.7 µM (inactive)
Cc1ccc(/C=C/C(=O)Nc2ccccc2C(N)=O)cc1 | > 55.7 µM (inactive)
COc1ccc(-c2nc3ccc([N+](=O)[O-])cc3[nH]2)cc1 | > 55.7 µM (inactive)
Nc1ccc2oc(-c3ccccc3Cl)nc2c1 | > 55.7 µM (inactive)
CC(=O)NC(=S)Nc1sc2c(c1C#N)CCCCC2 | > 55.7 µM (inactive)

SMILES | EC50
Cc1ccc(C(=O)N2CCc3ccccc32)o1 | > 55.7 µM (inactive)
C=CCNC(=O)c1cc(-c2ccc(Br)cc2)on1 | > 55.7 µM (inactive)
COc1ccc(Nc2oc(-c3cccs3)nc2C#N)cc1 | > 55.7 µM (inactive)
Cc1ccc(C(=O)/C=C/Nc2cccc([N+](=O)[O-])c2)o1 | > 55.7 µM (inactive)
C/C(=C\c1ccccc1)C(=O)Nc1nccs1 | > 55.7 µM (inactive)
Cc1nc2ccc3nc(NC(=O)c4ccco4)sc3c2s1 | > 55.7 µM (inactive)
O=C(/C=C/c1ccc(F)cc1)Nc1nc2ccccc2[nH]1 | > 55.7 µM (inactive)
CC(C)(C)N=C1NN=C(c2cc3ccccc3o2)CS1 | > 55.7 µM (inactive)
Clc1ccc(-n2ncc3c(N4CCCC4)ncnc32)cc1 | > 55.7 µM (inactive)
CCOC(=O)/C(C#N)=C/c1cc(C)n(-c2ccccc2)c1C | > 55.7 µM (inactive)
O=C(O)c1ccccc1C(=O)Nc1ccc(-c2csc(-c3ccccc3)n2)cc1 | > 55.7 µM (inactive)
CCOCC(=O)Nc1nc2ccc(OCC)cc2s1 | > 55.7 µM (inactive)
Fc1ccc2nc(Nc3nc4cc5c(cc4s3)OCCO5)sc2c1 | > 55.7 µM (inactive)
O=C(/C=C/Nc1ccc(F)cc1)c1ccc(Br)cc1 | > 55.7 µM (inactive)
CCOC(=O)c1sc(NC(=O)c2sccc2C)cc1C | > 55.7 µM (inactive)
O=C(NCCC1=CCCCC1)c1ccc(F)cc1 | > 55.7 µM (inactive)
Cc1ncsc1C(=O)Nc1nc2c(s1)CCCC2 | > 55.7 µM (inactive)
O=C(/C(C=Nc1ccc(Br)cc1)=C(/O)c1ccco1)C(F)(F)F | > 55.7 µM (inactive)
